Laboratory results from article PMC4788153, “Impact of Cytochrome P450 2D6 Function on the Chiral Blood Plasma Pharmacokinetics of 3,4-Methylenedioxymethamphetamine (MDMA) and Its Phase I and II Metabolites in Humans” (PLoS ONE, 2016).
pEC50: −log10 of the molar value. Where two headings read alike, the source gives them in different places.

Columns and labels:
[1] = Chiral plasma pharmacokinetics of bupropion and hydroxybupropion; settings: for effect of MDMA co-administration on plasma concentrations: bupropion+MDMA vs bupropion+placebo; for half-life: both, human, plasma, oral
DAT [2] = settings: cited from earlier work
[3] = design: method as in ref [46] (a number printed in a supplementary file, which may have a reference list of its own: not looked up in the article's list); settings: ref [46]; cited from earlier work
DAT [4] = system: DAT; design: method as in ref [15] (a number printed in a supplementary file, which may have a reference list of its own: not looked up in the article's list); settings: rat synaptosomes, without bupropion; ref [15]; read-out: EC50 of DAT-mediated amphetamine-induced DA release; cited from earlier work
[5] = Chiral plasma pharmacokinetics of MDMA and its phase I and II metabolites after controlled MDMA administration; type: in vivo, human; settings: for AUC(0-t) / Cmax / half-life / Tmax: human, plasma; for AUC(0-t): read-out: AUC0-24h S; for Cmax: read-out: Cmax S; for half-life: read-out: t1/2 S (converted); for Tmax: read-out: tmax S; for change in AUC24 after bupropion pretreatment / change in Cmax after bupropion pretreatment: bupropion+MDMA vs placebo+MDMA, unsigned = increase
Method: Blood plasma samples were analyzed non-stereoselectively as reported previously and reanalyzed for the present report using liquid chromatography-mass spectrometry/mass spectrometry after chiral derivatization with Marfey’s reagent as described previously. The method was fully validated, including selectivity, recovery, matrix effects, bias and imprecision, stability, and limit of quantification.

[6] = 125 mg single dose; ref [3, 61]; cited from earlier work
serotonin transporter = settings: four weeks after MDMA 1.5-1.7 mg/kg, MDMA-naïve volunteers; ref [123, 124]; cited from earlier work
[7] = both sexes, oral, 125 mg, placebo+MDMA (125 mg), CYP2D6 EM, n=13, plasma
[8] = both sexes, oral, bupropion+MDMA (125 mg), CYP2D6 EM (EM/Bup), n=13, plasma
[9] = bupropion+MDMA (125 mg), CYP2D6 EM (EM/Bup), n=13, plasma
[10] = im, placebo+MDMA (125 mg), CYP2D6 IM, n=3, plasma
[11] = placebo+MDMA (125 mg), CYP2D6 EM, n=13, plasma
[12] = placebo+MDMA (125 mg), CYP2D6 IM, n=3, plasma
[13] = bupropion vs placebo pretreatment
[14] = placebo-pretreated EMs, same-configuration MDMA enantiomer
[15] = bupropion vs placebo pretreatment, CYP2D6 EMs

C[C@@H]1NC(C)(C)CO[C@@]1(O)c1cccc(Cl)c1 [S,S-hydroxybupropion, hydroxybupropion]
effect of MDMA co-administration on plasma concentrations [1]: did not significantly alter

CC(NC(C)(C)C)C(=O)c1cccc(Cl)c1 (centres unmarked) [bupropion]
DAT occupancy in the human striatum (DAT [2]; 150 mg twice-daily, 3 h after last dose, 11C-βCIT-FE PET, ref [16]): 26% | striatal DAT occupancy (DAT [2]; 2.5 h after single 150 mg, 11C-raclopride PET, ref [83]): no significant | T1/2 [3]: 20 h

C[C@H]1NC(C)(C)CO[C@]1(O)c1cccc(Cl)c1 [R,R-hydroxybupropion, hydroxybupropion]
effect of MDMA co-administration on plasma concentrations [1]: did not significantly alter

C[C@@H](NC(C)(C)C)C(=O)c1cccc(Cl)c1 [R-bupropion, bupropion]
half-life ([1]; 300 mg, t1/2 R/ R,R, bupropion+placebo (P), CYP2B6 genotype normal): 8.4 h | half-life ([1]; 300 mg, t1/2 R/ R,R, bupropion+placebo (P), CYP2B6 genotype reduced): 8.9 h | half-life ([1]; t1/2 R/ R,R, bupropion+MDMA (M), CYP2B6 genotype normal): 8.5 h | half-life ([1]; t1/2 R/ R,R, bupropion+MDMA (M), CYP2B6 genotype reduced): 7.5 h | effect of MDMA co-administration on plasma concentrations [1]: did not significantly alter

C[C@H](NC(C)(C)C)C(=O)c1cccc(Cl)c1 [S-bupropion, bupropion]
half-life ([1]; 300 mg, t1/2 S/ S,S, bupropion+placebo (P), CYP2B6 genotype normal): 7.3 h | half-life ([1]; 300 mg, t1/2 S/ S,S, bupropion+placebo (P), CYP2B6 genotype reduced): 7.8 h | half-life ([1]; t1/2 S/ S,S, bupropion+MDMA (M), CYP2B6 genotype normal): 7.5 h | half-life ([1]; t1/2 S/ S,S, bupropion+MDMA (M), CYP2B6 genotype reduced): 6.8 h | effect of MDMA co-administration on plasma concentrations [1]: did not significantly alter

CC(N)Cc1ccc2c(c1)OCO2 (centres unmarked) [S-MDA, 3,4-methylenedioxyamphetamine]
AUC(0-t) [5, 7]: 0.61 µM·h | Cmax [5, 7]: 41 nM | half-life [5, 7]: 9.2 h | Tmax [5, 7]: 4.6 h | AUC(0-t) [5, 8]: 0.49 µM·h | Cmax [5, 8]: 31 nM | half-life [5, 8]: 11.1 h | Tmax [5, 8]: 5.2 h | AUCtotal S [5, 9]: 0.69 (0.17) μmol/l*h-1 | change in AUC24 after bupropion pretreatment ([5]; CYP2D6 EMs): -20% | change in Cmax after bupropion pretreatment ([5]; CYP2D6 EMs): -24% | AUC(0-t) [5, 10]: 0.65 µM·h | Cmax [5, 10]: 42 nM | half-life [5, 10]: 10.6 h | Tmax [5, 10]: 4.4 h | AUCtotal S [5, 11]: 0.76 (0.27) μmol/l*h-1 | AUCtotal S [5, 12]: 0.87 (0.31) μmol/l*h-1

CNC(C)Cc1ccc2c(c1)OCO2 (centres unmarked) [MDMA, 3,4-methylenedioxymethamphetamine]
T1/2 [6]: 9.6 h | Tmax [6]: 2.5 h | mean overall effect on R/S ratios ([5]; CYP2D6 inhibition by bupropion): less than 10% | change of R/S ratio for AUC24 after bupropion pretreatment [5, 13]: -9% | change of R/S ratio for Cmax after bupropion pretreatment [5, 13]: -6% | change in serotonin transporter density (serotonin transporter): No changes

CN[C@@H](C)Cc1ccc(O)c(OS(=O)(=O)O)c1 [S-DHMA 3-sulfate]
metabolite/MDMA ratio, mean constant (after approximately 2 h) ([5]; IMs): 0.42 | metabolite/MDMA ratio, mean initial (highest, first hour) ([5]; IMs): 8.8 | AUC(0-t) [5, 7]: 6.3 µM·h | Cmax [5, 7]: 590 nM | half-life [5, 7]: 7.3 h | Tmax [5, 7]: 1.5 h | AUC(0-t) [5, 8]: 2.8 µM·h | Cmax [5, 8]: 200 nM | half-life [5, 8]: 11.3 h | Tmax [5, 8]: 2.4 h | AUCtotal S [5, 9]: 3.7 (2.1) μmol/l*h-1 | change in AUC24 after bupropion pretreatment ([5]; CYP2D6 EMs): -56% | change in Cmax after bupropion pretreatment ([5]; CYP2D6 EMs): -67% | metabolite/MDMA ratio, mean constant (after approximately 2 h) ([5]; bupropion-pretreated EMs): 0.34 | metabolite/MDMA ratio, mean initial (highest, first hour) ([5]; bupropion-pretreated EMs): 1.8 | AUC(0-t) [5, 10]: 3 µM·h | Cmax [5, 10]: 280 nM | half-life [5, 10]: 7 h | Tmax [5, 10]: 1.9 h | AUCtotal S [5, 11]: 7.1 (3.1) μmol/l*h-1 | AUCtotal S [5, 12]: 3.3 (1.1) μmol/l*h-1 | metabolite/MDMA ratio, mean constant (after approximately 2 h) ([5]; placebo-pretreated EMs): 1.1 | metabolite/MDMA ratio, mean initial (highest, first hour) [5, 14]: 33

CN[C@@H](C)Cc1ccc2c(c1)OCO2 [S-MDMA, 3,4-methylenedioxymethamphetamine]
AUC(0-t) [5, 7]: 4.9 µM·h | Cmax [5, 7]: 560 nM | half-life [5, 7]: 4.5 h | Tmax [5, 7]: 2.1 h | AUC(0-t) [5, 8]: 6.8 µM·h | Cmax [5, 8]: 650 nM | half-life [5, 8]: 5.7 h | Tmax [5, 8]: 2.5 h | prolongation of t1/2 after bupropion pretreatment [5, 15]: 26% | reduction of Cl/F after bupropion pretreatment [5, 15]: -31% | AUCtotal S [5, 9]: 7.2 (1.7) μmol/l*h-1 | CL/F S [5, 9]: 50.5 (13.5) l/h | change in AUC24 after bupropion pretreatment ([5]; CYP2D6 EMs): 38% | change in Cmax after bupropion pretreatment ([5]; CYP2D6 EMs): 16% | AUC(0-t) [5, 10]: 6.8 µM·h | Cmax [5, 10]: 720 nM | half-life [5, 10]: 5.1 h | Tmax [5, 10]: 2.3 h | AUCtotal S [5, 11]: 5.1 (1.5) μmol/l*h-1 | CL/F S [5, 11]: 72.8 (26.2) l/h | AUCtotal S [5, 12]: 7.1 (2.0) μmol/l*h-1 | CL/F S [5, 12]: 50.4 (12.6) l/h

CN[C@@H](C)Cc1ccc(OS(=O)(=O)O)c(O)c1 [S-DHMA 4-sulfate]
metabolite/MDMA ratio, mean constant (after approximately 2 h) ([5]; IMs): 0.05 | metabolite/MDMA ratio, mean initial (highest, first hour) ([5]; IMs): 0.91 | AUC(0-t) [5, 7]: 0.64 µM·h | Cmax [5, 7]: 55 nM | half-life [5, 7]: 8.1 h | Tmax [5, 7]: 1.7 h | AUC(0-t) [5, 8]: 0.32 µM·h | Cmax [5, 8]: 21 nM | half-life [5, 8]: 14.3 h | Tmax [5, 8]: 2.4 h | AUCtotal S [5, 9]: 0.48 (0.19) μmol/l*h-1 | change in AUC24 after bupropion pretreatment ([5]; CYP2D6 EMs): -50% | change in Cmax after bupropion pretreatment ([5]; CYP2D6 EMs): -61% | metabolite/MDMA ratio, mean constant (after approximately 2 h) ([5]; bupropion-pretreated EMs): 0.04 | metabolite/MDMA ratio, mean initial (highest, first hour) ([5]; bupropion-pretreated EMs): 0.60 | AUC(0-t) [5, 10]: 0.4 µM·h | Cmax [5, 10]: 29 nM | half-life [5, 10]: 12.1 h | Tmax [5, 10]: 2.1 h | AUCtotal S [5, 11]: 0.80 (0.37) μmol/l*h-1 | AUCtotal S [5, 12]: 0.59 (0.30) μmol/l*h-1 | metabolite/MDMA ratio, mean constant (after approximately 2 h) ([5]; placebo-pretreated EMs): 0.11 | metabolite/MDMA ratio, mean initial (highest, first hour) [5, 14]: 3.8
